Experimental data from patent publication US20230146455A1, “TREATMENT OF INFLAMMATORY DISEASES WITH PEPTIDES AND PHARMACEUTICAL COMPOSITIONS” (Yuyu Pharma, Inc., priority 2020, published 2023).
Where “and” joins values, the source holds several entries; their conditions need not be identical. Identical values can stand only once. Where a SMILES comes first, the peptide text is derived from it. [ ]: non-standard residue; d: D form. Hyp = O=C(O)[C@@H]1C[C@@H](O)CN1

Tested on: CCL5/RANTES
Test: Example 9 Luminex, LPS hPBMCs: CCL5/RANTES
Type: cell-based, human
Conditions: PBMC + LPS(5 ug/ml)
Experimental: Treatment Human PBMCs were pretreated with YY-101, YDE-011 and YDE-043 or reference compound; Xiidra® at various concentration (ranging from 1 nM to 100 uM) for 2 h before stimulation. An equal volume of 0.5% DMSO was used as a vehicle control. Then, the cells were treated with LPS at 5 ug/ml. The supernatants from treated cells were harvested at 24 h and placed in a 96 well for Luminex cytokine & chemokine profiling using a Luminex 200 multiplex assay (Luminex; R&D system, USA).
The main study arm with triplicate wells per group in a 24-well plate: • 1. Blank • 2. PBMC: 0.5% DMSO • 3. PBMC+LPS (5 ug/ml) • 4. PBMC+YY-101 100 uM • 5. PBMC+YY-101 10 uM • 6. PBMC+YY-101 1 uM • 7. PBMC+YY-101 0.1 uM • 8. PBMC+YY-101 0.01 uM • 9. PBMC+LPS (5 ug/ml)+Xiidra®100 uM • 10. PBMC+LPS (5 ug/ml)+Xiidra® 10 uM • 11. PBMC+LPS (5 ug/ml)+Xiidra® 1 uM • 12. PBMC+LPS (5 ug/ml)+Xiidra®0.1 uM • 13. PBMC+LPS (5 ug/ml)+Xiidra®0.01 uM • 14. PBMC+LPS (5 ug/ml)+Xiidra®0.001 uM • 15. PBMC+LPS (5 ug/ml)+YY-101 100 uM • 16. PBMC+LPS (5 ug/ml)+YY-101 10 uM • 17. PBMC+LPS (5 ug/ml)+YY-101 1 uM • 18. PBMC+LPS (5 ug/ml)+YY-101 0.1 uM • 19. PBMC+LPS (5 ug/ml)+YY-101 0.01 uM • 20. PBMC+LPS (5 ug/ml)+YY-101 0.001 uM • 21. PBMC+LPS (5 ug/ml)+YDE-011 100 uM • 22. PBMC+LPS (5 ug/ml)+YDE-011 10 uM • 23. PBMC+LPS (5 ug/ml)+YDE-011 1 uM • 24. PBMC+LPS (5 ug/ml)+YDE-011 0.1 uM • 25. PBMC+LPS (5 ug/ml)+YDE-011 0.01 uM • 26. PBMC+LPS (5 ug/ml)+YDE-011 0.001 uM • 27. PBMC+LPS (5 ug/ml)+YDE-043 100 uM • 28. PBMC+LPS (5 ug/ml)+YDE-043 10 uM • 29. PBMC+LPS (5 ug/ml)+YDE-043 1 uM • 30. PBMC+LPS (5 ug/ml)+YDE-043 0.1 uM • 31. PBMC+LPS (5 ug/ml)+YDE-043 0.01 uM • 32. PBMC+LPS (5 ug/ml)+YDE-043 0.001 uM
Multiplex assay was used to measure 30 cytokines and chemokines. The 1:2, 1:10 and 1:200 diluted cell supernatant and serial dilution of the standard were dispensed into a 96 well plate at 50 ul/well. Then, the pre-mixed cocktail of antibody-coated magnetic beads was dispensed at 50 ul/well and incubated at room temperature for 2 h in a horizontal orbital microplate shaker at 800±500 rpm. The beads were washed using a magnetic device to prevent loss. The biotin-antibody was dispensed in 50 ul of each well and incubated at room temperature for 1 h in a shaker at 800±500 rpm. After washing, streptavidin-PE was added at 50 ul/well and incubated at room temperature for 30 min in a shaker under the same conditions. Finally, after washing, wash buffer (100 ul/well) was added to the plate and incubated in a shaker for 2 min. The Luminex™ 200 setting were set according to the manufacturer's protocol. The data was calculated with a standard five-parameter logistic nonlinear regression analysis of the data (xPonent software 4.2, USA). The levels of cytokine/chemokine are normalized to the live cell counts (1×10^5 cells/mL) and presented as concentrations per mL (pg/mL or ng/mL).

[1] = test article 0.001 uM, single replicates (1st, 2nd, 3rd)
[2] = test article 0.01 uM, single replicates (1st, 2nd, 3rd)
[3] = test article 0.1 uM, single replicates (1st, 2nd, 3rd)
[4] = test article 1 uM, single replicates (1st, 2nd, 3rd)
[5] = test article 10 uM, single replicates (1st, 2nd, 3rd)
[6] = test article 100 uM, single replicates (1st, 2nd, 3rd)

Row | SMILES | Concentration (CCL5/RANTES) (test article 0.001 uM, Mean) [pg/mL] | MFI (Bead name: CCL5/RANTES) (test article 0.001 uM, Mean) | conc/live cell (CCL5/RANTES) (test article 0.001 uM, Mean) [pg/10^5] | Concentration (CCL5/RANTES) [1] | MFI (Bead name: CCL5/RANTES) [1] | conc/live cell (CCL5/RANTES) [1] | Concentration (CCL5/RANTES) (test article 0.01 uM, Mean) [pg/mL] | MFI (Bead name: CCL5/RANTES) (test article 0.01 uM, Mean) | conc/live cell (CCL5/RANTES) (test article 0.01 uM, Mean) [pg/10^5] | Concentration (CCL5/RANTES) [2] | MFI (Bead name: CCL5/RANTES) [2] | conc/live cell (CCL5/RANTES) [2] | Concentration (CCL5/RANTES) (test article 0.1 uM, Mean) [pg/mL] | MFI (Bead name: CCL5/RANTES) (test article 0.1 uM, Mean) | conc/live cell (CCL5/RANTES) (test article 0.1 uM, Mean) [pg/10^5] | Concentration (CCL5/RANTES) [3] | MFI (Bead name: CCL5/RANTES) [3] | conc/live cell (CCL5/RANTES) [3] | Concentration (CCL5/RANTES) (test article 1 uM, Mean) [pg/mL] | MFI (Bead name: CCL5/RANTES) (test article 1 uM, Mean) | other results
1 | CC(C)C[C@H](NC(=O)CNC(=O)[C@H](CC(C)C)NC(=O)[C@H](CCC(N)=O)NC(=O)CNC(=O)[C@@H]1C[C@@H](O)CN1)C(=O)N[C@@H](C)C(=O)NCC(=O)N1CCC[C@H]1C(=O)N[C@@H](CCCCN)C(=O)O [YDE-011] (H-[Hyp]GQLGLAGPK-OH) | 209.7 | 477.2 | 39.5 | 202.5 pg/ml (2×) and 224.1 pg/ml | 455.5 (2×) and 520.5 | 45.0 pg/10^5 and 34.9 pg/10^5 and 38.6 pg/10^5 | 215.3 | 494.0 | 37.1 | 216.5 pg/mL and 220.2 pg/mL and 209.4 pg/mL | 497.5 and 508.5 and 476.0 | 34.9 pg/10^5 and 43.2 pg/10^5 and 33.2 pg/10^5 | 207.0 | 468.8 | 36.3 | 206.7 pg/mL and 205.2 pg/mL and 209.0 pg/mL | 468.0 and 463.5 and 475.0 | 31.3 pg/10^5 and 41.0 pg/10^5 and 36.7 pg/10^5 | 199.8 | 447.5 | conc/live cell (CCL5/RANTES) (test article 1 uM, Mean): 39.8 pg/10^5; Concentration (CCL5/RANTES) [4]: 205.5 pg/mL and 199.5 pg/mL and 194.4 pg/mL; MFI (Bead name: CCL5/RANTES) [4]: 464.5 and 446.5 and 431.5; conc/live cell (CCL5/RANTES) [4]: 37.4 pg/10^5 and 41.6 pg/10^5 and 40.5 pg/10^5; Concentration (CCL5/RANTES) (test article 10 uM, Mean): 204.9 pg/mL; MFI (Bead name: CCL5/RANTES) (test article 10 uM, Mean): 462.7; conc/live cell (CCL5/RANTES) (test article 10 uM, Mean): 38.9 pg/10^5; Concentration (CCL5/RANTES) [5]: 214.7 pg/mL and 201.8 pg/mL and 198.1 pg/mL; MFI (Bead name: CCL5/RANTES) [5]: 492.0 and 453.5 and 442.5; conc/live cell (CCL5/RANTES) [5]: 39.8 pg/10^5 and 34.8 pg/10^5 and 42.1 pg/10^5; Concentration (CCL5/RANTES) (test article 100 uM, Mean): 161.8 pg/mL; MFI (Bead name: CCL5/RANTES) (test article 100 uM, Mean): 338.5; conc/live cell (CCL5/RANTES) (test article 100 uM, Mean): 26.7 pg/10^5; Concentration (CCL5/RANTES) [6]: 170.4 pg/mL and 153.5 pg/mL and 161.5 pg/mL; MFI (Bead name: CCL5/RANTES) [6]: 362.5 and 315.5 and 337.5; conc/live cell (CCL5/RANTES) [6]: 27.9 pg/10^5 and 25.2 pg/10^5 and 26.9 pg/10^5
2 | CC(C)C[C@H](NC(=O)[C@H](CCC(N)=O)NC(=O)CNC(=O)[C@@H]1C[C@@H](O)CN1)C(=O)NCC(=O)O [YDE-043] (H-[Hyp]GQLG-OH; N-terminus and C-terminus assumed) | 207.1 | 469.3 | 42.0 | 199.1 pg/mL and 216.5 pg/mL and 205.7 pg/mL | 445.5 and 497.5 and 465.0 | 45.3 pg/10^5 and 36.1 pg/10^5 and 44.7 pg/10^5 | 214.6 | 491.8 | 41.1 | 219.3 pg/mL and 212.9 pg/mL and 211.7 pg/mL | 506.0 and 486.5 and 483.0 | 48.7 pg/10^5 and 32.3 pg/10^5 and 42.3 pg/10^5 | 215.9 | 495.8 | 40.1 | 220.2 pg/mL and 200.1 pg/mL and 227.4 pg/mL | 508.5 and 448.5 and 530.5 | 44.0 pg/10^5 and 35.7 pg/10^5 and 40.6 pg/10^5 | 214.4 | 491.2 | conc/live cell (CCL5/RANTES) (test article 1 uM, Mean): 40.7 pg/10^5; Concentration (CCL5/RANTES) [4]: 218.2 pg/mL and 212.9 pg/mL and 212.2 pg/mL; MFI (Bead name: CCL5/RANTES) [4]: 502.5 and 486.5 and 484.5; conc/live cell (CCL5/RANTES) [4]: 37.6 pg/10^5 and 44.3 pg/10^5 and 40.0 pg/10^5; Concentration (CCL5/RANTES) (test article 10 uM, Mean): 202.8 pg/mL; MFI (Bead name: CCL5/RANTES) (test article 10 uM, Mean): 456.5; conc/live cell (CCL5/RANTES) (test article 10 uM, Mean): 37.6 pg/10^5; Concentration (CCL5/RANTES) [5]: 212.9 pg/mL and 193.7 pg/mL and 201.8 pg/mL; MFI (Bead name: CCL5/RANTES) [5]: 486.5 and 429.5 and 453.5; conc/live cell (CCL5/RANTES) [5]: 40.9 pg/10^5 and 35.9 pg/10^5 and 36.0 pg/10^5; Concentration (CCL5/RANTES) (test article 100 uM, Mean): 163.0 pg/mL; MFI (Bead name: CCL5/RANTES) (test article 100 uM, Mean): 341.8; conc/live cell (CCL5/RANTES) (test article 100 uM, Mean): 25.9 pg/10^5; Concentration (CCL5/RANTES) [6]: 167.0 pg/mL and 159.0 pg/mL; MFI (Bead name: CCL5/RANTES) [6]: 353.0 and 330.5; conc/live cell (CCL5/RANTES) [6]: 26.9 pg/10^5 and 24.8 pg/10^5
